Assay results taken from patent US20030125337A1, “Inhibitors of multidrug transporters” (priority 1998, published 2003).
Converted amounts (≈) assume the structure as drawn. Like-named read-outs stand apart in the source and are kept apart here.

Columns and labels:
NorA [1] = molecular target: T1, NorA (Staphylococcus aureus, UniProt P0A0J7); format: cell-based; conditions: FIG. 8; reserpine 20 μg/ml, INF 55, 240, 271, 392 5 μg/ml, INF 277 10 μg/ml
T1 construct: expressed in transfected cells; host or cells: Bacillus subtilis strain NA
Procedure: Effect of the lead inhibitors on ethidium efflux from NA cells. NA cells were loaded with ethidium in the presence of reserpine and allowed to efflux in the absence of reserpine (A) in the presence of 20 μg/ml reserpine (B), 5 μg/ml of INF 55 (C), 5 μg/ml of INF 240 (D), 5 μg/ml of INF 271 (E), 5 μg/ml of INF 392 (F), or 10 μg/ml of INF 277 (G). Fluorescence intensity is proportional to the amount of ethidium remaining inside the cells.
NA cells overexpressing NorA were loaded with ethidium bromide in the presence of reserpine (20 μg/ml). After washing, cells were placed in a fluorimeter cuvette with fresh medium.

[2] = system: wild type S. aureus SA1199; format: cell-based; conditions: INF inhibitors 5 μg/ml, reserpine 20 μg/ml; for Fold inhibition of emergence of resistance: ciprofloxacin resistance, SA1199
Procedure: The effect of the inhibitors on the rate of emergence of in vitro selected single-step ciprofloxacin resistant mutants of wild type S. aureus SA1199 (Kaatz et al., 1990) was determined.
Ciprofloxacin resistance in first step in vitro selected mutants of S. aureus is predominantly due to specific point mutations in the targets of this drug, topoisomerase IV and gyrase (Cambau and Gutman, 1993; Ferrero et al., 1994).

[3] = system: NorA-overexpressing S. aureus, SA1199B; assay: Frequency of emergence of SA1199B mutants insensitive to the NorA inhibitor (adaptation of NorA); format: cell-based; conditions: mutagenized SA1199B, ethidium bromide 10 μg/ml, INF inhibitors 5 μg/ml, reserpine 20 μg/ml, 48 h
Procedure: To evaluate the possibility of such mutations arising in the NorA transporter the inventors determined the frequency of emergence of mutants of NorA-overexpressing S. aureus, SA1199B, that retained resistance to a NorA substrate in spite of the presence of a NorA inhibitor. […] After a 48 h incubation period the number of colonies on each plate was determined.

S. aureus (SA1199B) = assay: Minimal inhibitor concentration decreasing the ciprofloxacin MIC two fold, S. aureus SA1199B; format: cell-based; conditions: Staphylococcus aureus, read-out: Effectivity IC50* S. Aureus
S. pneumoniae (SPC2A) = assay: Minimal inhibitor concentration decreasing the ciprofloxacin MIC two fold, S. pneumoniae SPC2A; format: cell-based; conditions: Streptococcus pneumoniae; SPC2A; minimal concentration required to decrease the MIC for ciprofloxacin by two fold; N.A. = not active at 5 μg/ml; read-out: IC50 S. Pneumoniae
NorA [4] = molecular target: T1, NorA; conditions: reference for CoMFA predictions; cited from earlier work
[5] = system: first step mutants of S. pneumoniae (ATCC 49619); conditions: three first step mutants, non-toxic concentration
Bmr = Bmr (Bacillus subtilis, UniProt P33449); conditions: cited from earlier work
NorA [6] = molecular target: T1, NorA; conditions: cited from earlier work
B. subtilis = conditions: inhibition of the Bmr transporter; cited from earlier work
wild-type S. aureus = conditions: cited from earlier work
S. pneumoniae = conditions: cited from earlier work
E. faecalis = conditions: cited from earlier work
[7] = S. pneumoniae strain EBR, non-toxic concentrations

T1 sequence (P0A0J7 whole entry): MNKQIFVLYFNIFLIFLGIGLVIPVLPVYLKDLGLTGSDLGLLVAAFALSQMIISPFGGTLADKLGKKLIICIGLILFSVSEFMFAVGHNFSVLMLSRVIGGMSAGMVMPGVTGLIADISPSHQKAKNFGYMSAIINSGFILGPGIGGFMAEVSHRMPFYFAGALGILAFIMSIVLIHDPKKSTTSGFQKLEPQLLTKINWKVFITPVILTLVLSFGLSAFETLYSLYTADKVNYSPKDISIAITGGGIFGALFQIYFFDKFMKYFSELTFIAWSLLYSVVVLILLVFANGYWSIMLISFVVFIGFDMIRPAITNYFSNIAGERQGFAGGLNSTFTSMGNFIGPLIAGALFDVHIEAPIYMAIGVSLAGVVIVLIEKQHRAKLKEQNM
Chain of Bmr (P33449 whole entry): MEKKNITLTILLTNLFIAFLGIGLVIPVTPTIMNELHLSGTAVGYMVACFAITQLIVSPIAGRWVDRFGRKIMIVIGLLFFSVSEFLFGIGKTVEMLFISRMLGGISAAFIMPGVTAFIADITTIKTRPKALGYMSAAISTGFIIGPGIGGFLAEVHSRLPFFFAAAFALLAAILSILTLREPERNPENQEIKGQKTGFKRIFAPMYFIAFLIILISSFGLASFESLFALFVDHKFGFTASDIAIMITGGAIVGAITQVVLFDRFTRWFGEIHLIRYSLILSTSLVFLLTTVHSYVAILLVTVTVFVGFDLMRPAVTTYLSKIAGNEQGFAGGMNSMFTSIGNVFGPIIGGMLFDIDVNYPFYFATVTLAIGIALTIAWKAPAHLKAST

## COC(=O)[C@H]1[C@H]2C[C@@H]3c4[nH]c5cc(OC)ccc5c4CCN3C[C@H]2C[C@@H](OC(=O)c2cc(OC)c(OC)c(OC)c2)[C@@H]1OC [Reserpine, reserpine]
NorA [1]
  inhibition of the decrease in fluorescence due to NorA-mediated ethidium efflux: dramatically inhibited
[2]; SA1199, ciprofloxacin 1 μg/ml, 48 h
  Frequency of emergence of variants resistant to two fold the MIC of ciprofloxacin, Spontaneous: <5 × 10^−11
[2]; SA1199 mutagenized with ethylmethane sulfonate
  Frequency of emergence of variants resistant to two fold the MIC of ciprofloxacin, Mutagenized: <2.5 × 10^−10
[2]
  Fold inhibition of emergence of resistance: >50
[2]; listed as reserpine
  Fold inhibition of emergence of resistance: more than one order of magnitude
[3]
  Frequency of adaptation of NorA (mutants insensitive to the inhibitor): approximately 2×10^−8
S. aureus (SA1199B)
  IC50: 6.25 µg/mL (≈ 10.3 µM)
S. pneumoniae (SPC2A)
  IC50: 5 µg/mL (≈ 8.21 µM)
NorA [4]
  concentration at which known to be active: 5 µg/mL
[5]
  reversal of resistance to ciprofloxacin and ethidium bromide: reversed the resistance
Bmr
  inhibition of drug efflux mediated by Bmr: completely inhibited
NorA [6]
  inhibition of drug efflux mediated by NorA: completely inhibited
B. subtilis
  reduction of the MIC of norfloxacin: by a factor of five
wild-type S. aureus
  reduction of the MIC of norfloxacin: at least four-fold
S. pneumoniae; [7]
  inhibition of ethidium efflux: inhibited ethidium efflux
  reversal of resistance to ethidium and fluoroquinolones: reversed the resistance
S. pneumoniae; wild type S. pneumoniae
  potentiation of susceptibility to ethidium and fluoroquinolones: two to three fold
S. pneumoniae; wild-type S. pneumoniae
  factor of reduction of the MIC of norfloxacin and ciprofloxacin: 2-3
E. faecalis
  increase in susceptibility to fluoroquinolones: two-fold increase
